Data set [1] in a line: Multiple-dose pharmacokinetics in rats. Type of data set: in vivo, Sprague Dawley rats. How it is done: The optimal volume and activity in unit volume of enzyme solution [0.2 M acetic acid/water solution: 0.2 M ammonium acetate/water solution, 15:35 (v/v)] were determined through a pretest of the enzyme (rat plasma, 10 μl, 10 U μl^-1; dog plasma, 10 μl, 10 U μl^-1; human plasma, 20 μl, 20 U μl^-1; human urine, 10 μl, 10 U μl^-1). After enzyme incubation, 10 μl of IS solution was added to the plasma and urine samples (2 μg ml^-1 quercetin 3-β-D-glucoside for rat and dog plasma; 583 ng ml^-1 naringin-D4 and 160 ng ml^-1 naringenin-D4 for human plasma; and 9,710 ng ml^-1 naringin-D4 and 6,000 ng ml^-1 naringenin-D4 for human urine). To each fecal sample, 9-fold methanol-normal saline (2:1, v/v) was added, mixed (18,000 rpm, 15 min) by vortexing and centrifuged (10 min, 9,000 rpm, 4°C). Next, 10 μl IS solution (971 ng ml^-1 naringin-D4 and 600 ng ml^-1 naringenin-D4) was added to the supernatants of feces (200 μl) without enzyme incubation. […] The solid material was dissolved with acetonitrile-water (1:1, v/v) and injected into the ultra high-performance liquid chromatography coupled with triple quadrupole mass spectrometry (UHPLC/MS/MS) system as described below. The analysis of nonclinical and clinical samples was performed with a UHPLC/MS/MS system that consisted of a Shimadzu Nexera X2 ultra high-performance liquid chromatography (UHPLC) (Shimadzu Corp., Kyoto, Japan) coupled with an AB Sciex API4000 triple-quadrupole mass spectrometry (MS/MS) system (AB Sciex, Foster City, CA, USA) equipped with an electrospray ionization source and controlled by Analyst (v. 1.6.2) software. […] The injection volume was 10 μl with the flow rate of 0.3 ml min^-1 for plasma, and 0.4 ml min^-1 for urine and feces. The compounds were detected by multiple reaction monitoring in the negative ion electrospray mode. The electrospray source conditions were as follows: ion source gas1 30 psi, ion source gas2 60 psi, curtain gas 20 psi, collisionally activated dissociation (CAD) gas 8 psi, temperature 500°C, and ion spray voltage −4,500 V. Zero air was used for ion source gas1 and ion source gas2 and nitrogen for curtain gas and CAD gas. […] All pharmacokinetic and excretion parameters were expressed as mean ± standard deviation (SD). All mean and SD values were reported to three significant figures. The pharmacokinetic parameters were calculated using the Phoenix WinNonlin software (Version 6.4, Pharsight Corp., Cary, NC, USA) and compared using the Student's t-test (p < 0.05) in SPSS 18.0 (SPSS Inc., Chicago, IL, USA). […] For the multiple-dose studies, pharmacokinetic parameters included the mean plasma level at steady state, Tmax, t1/2, the percent fluctuation, and the accumulation index (Table 3). […] In addition, we compared the pharmacokinetic parameters obtained from males and females (Tables 4–6).

For data set [2] the following is noted: cited from earlier work.
Data set [3] is described as follows: Excretion in human urine and feces (mass balance). The class given is in vivo. Conditions: for time within which excreted: humans. As for the experimental part: All blood samples were transferred into heparin-treated centrifuge tubes and centrifuged for 10 min at 4,000 rpm and 4°C. All human urine samples were mixed and transferred (4 ml) into storage tubes. All biological samples were stored at −80°C.
The optimal volume and activity in unit volume of enzyme solution [0.2 M acetic acid/water solution: 0.2 M ammonium acetate/water solution, 15:35 (v/v)] were determined through a pretest of the enzyme (rat plasma, 10 μl, 10 U μl^-1; dog plasma, 10 μl, 10 U μl^-1; human plasma, 20 μl, 20 U μl^-1; human urine, 10 μl, 10 U μl^-1). […] To each fecal sample, 9-fold methanol-normal saline (2:1, v/v) was added, mixed (18,000 rpm, 15 min) by vortexing and centrifuged (10 min, 9,000 rpm, 4°C). […] Then, all plasma, urine, and fecal samples were extracted with ethyl acetate (rat plasma, 800 μl; dog plasma, 1,000 μl; human plasma, 3,000 μl; human urine, 3,000 μl; human feces, 3,000 μl) for at least 3 min by vortexing, centrifuged for 10 min at 3,900 rpm and 4°C; supernatants were transferred into centrifuge tubes and dried with N2. The solid material was dissolved with acetonitrile-water (1:1, v/v) and injected into the ultra high-performance liquid chromatography coupled with triple quadrupole mass spectrometry (UHPLC/MS/MS) system as described below.
The analysis of nonclinical and clinical samples was performed with a UHPLC/MS/MS system that consisted of a Shimadzu Nexera X2 ultra high-performance liquid chromatography (UHPLC) (Shimadzu Corp., Kyoto, Japan) coupled with an AB Sciex API4000 triple-quadrupole mass spectrometry (MS/MS) system (AB Sciex, Foster City, CA, USA) equipped with an electrospray ionization source and controlled by Analyst (v. 1.6.2) software. […] The mobile phase consisted of 0.1% formic acid (v/v) in water (A) and 0.1% formic acid in acetonitrile (B) using a linear gradient of 90% A (0–0.5 min), 90 to 60% A (0.5–1.5 min), 60% to 40% A (1.5–3.5 min), 40% to 10% A (3.5–4.5 min), 10% A (4.5–5.5 min), 10% to 90% A (5.5–6.0 min), and 90% A (6.0–7.5 min) for plasma; and 80% A (0–0.2 min), 80 to 64% A (0.2–2.0 min), 64% to 63% A (2.0–4.4 min), 63% to 0% A (4.4–4.5 min), 0% A (4.5–5.5 min), 0% to 90% A (5.5–5.6 min), 90% A (5.6–5.9 min), 90% to 35% A (5.9–6.0 min), 35% A (6.0–6.2 min), 35 to 80% A (6.2–6.3 min), and 80% A (6.3–7.5 min) for urine and feces. The injection volume was 10 μl with the flow rate of 0.3 ml min^-1 for plasma, and 0.4 ml min^-1 for urine and feces. The compounds were detected by multiple reaction monitoring in the negative ion electrospray mode. The electrospray source conditions were as follows: ion source gas1 30 psi, ion source gas2 60 psi, curtain gas 20 psi, collisionally activated dissociation (CAD) gas 8 psi, temperature 500°C, and ion spray voltage −4,500 V. Zero air was used for ion source gas1 and ion source gas2 and nitrogen for curtain gas and CAD gas.
Next, 9-fold normal saline, instead of ninefold methanol-normal saline (2:1, v/v), was added to maintain enzyme activity in the feces. […] These samples were maintained at 37°C for 12 h.

Where [4] appears, read: naringin 42 mg kg^-1 multiple dose, rat, female.
The mark [5] stands for this setting: naringin 42 mg kg^-1 multiple dose, rat, male.
The mark [6] stands for this setting: naringin 42 mg kg^-1 p.o. three times a day, multiple dose, rat.
Where [7] appears, read: naringin 160 mg (high-fat diet) p.o., human.
Where [8] appears, read: naringin 160 mg, three times a day, p.o., human.

Like-named read-outs stand apart in the source and are kept apart here.

As for `C[C@@H]1O[C@@H](O[C@H]2[C@H](Oc3cc(O)c4c(c3)O[C@H](c3ccc(O)cc3)CC4=O)O[C@H](CO)[C@@H](O)[C@@H]2O)[C@H](O)[C@H](O)[C@H]1O` [naringin, Naringin], the CavSS in data set [1] (setting [4]) stood at 17.4 ± 19.9 ng/mL; in data set [1] (setting [5]) it was 6.03 ± 9.48 ng/mL; in data set [1] (setting [6]) it was 11.7 ± 15.9 ng/mL. The Fluctuation in data set [1] (setting [4]) is recorded as 612 ± 233%; in data set [1] (setting [5]), 844 ± 1,030%; in data set [1] (naringin 42 mg kg^-1 p.o. three times a day, multiple dose, rat, (CmaxSS−CminSS)/CavSS×100%), 728 ± 711%. In data set [1] (rats), the “accumulation in multiple-dose study” value is “no significant accumulation”. Besides, the cumulative excretion percentage in data set [2] (aged rats, in the forms of naringin and naringenin, ref Zeng et al., 2019) is reported as 19%; in data set [2] (aged rats, in the forms of naringin, naringenin, and 4-hydroxyphenylpropionic acid, ref Zeng et al., 2019), 98%; in data set [2] (rats, in the forms of naringin, naringenin, and 4-hydroxyphenylpropionic acid, ref Liu M. et al., 2012), 21%. In addition, the “time within which excreted” value in data set [2] (rats, ref Liu M. et al., 2012) is listed as no more than 24 h; in data set [3] it was no more than 48 h. For the same compound, the “cumulative excretion in feces, Naringin” value in data set [3] (naringin 40 mg p.o., human) is on record as 0.122 ± 0.202 % of dose; in data set [3] (naringin 80 mg p.o., human) it was 0.023 ± 0.036 % of dose; in data set [3] (setting [7]) it was 9.85 ± 20.0 % of dose; in data set [3] (naringin 160 mg p.o., human), 0.016 ± 0.023 % of dose; in data set [3] (setting [8]) it was 0.563 ± 1.00 % of dose; in data set [3] (naringin 320 mg p.o., human), 0.126 ± 0.325 % of dose. In data set [3] (naringin 480 mg p.o., human), the “cumulative excretion in feces, Naringin” value is reported as 0.023 ± 0.033 % of dose. Also, the “cumulative excretion in urine, Naringin” value in data set [3] (naringin 40 mg p.o., human) is on record as 0.067 ± 0.039 % of dose; in data set [3] (naringin 80 mg p.o., human) it was 0.037 ± 0.013 % of dose; in data set [3] (setting [7]) it was 0.025 ± 0.008 % of dose; in data set [3] (naringin 160 mg p.o., human) it was 0.027 ± 0.014 % of dose; in data set [3] (setting [8]), 0.034 ± 0.014 % of dose; in data set [3] (naringin 320 mg p.o., human), 0.033 ± 0.026 % of dose. For the same compound, the “cumulative excretion in urine, Naringin” value in data set [3] (naringin 480 mg p.o., human) is recorded as 0.012 ± 0.004 % of dose.

For the compound `O=C1C[C@@H](c2ccc(O)cc2)Oc2cc(O)cc(O)c21` [naringenin, Naringenin], the CavSS is 600 ± 517 ng/mL in data set [1] (setting [4]), 178 ± 90.8 ng/mL in data set [1] (setting [5]) and 389 ± 415 ng/mL in data set [1] (setting [6]). The “accumulation in multiple-dose study” value in data set [1] (rat, in vivo) is recorded as “no significant accumulation”. Further, the “time within which excreted” value in data set [2] (rats, ref Liu M. et al., 2012) is reported as no more than 24 h; in data set [3] it was no more than 48 h. In addition, the “cumulative excretion in feces, Naringenin” value in data set [3] (setting [8]) is 1.83 ± 2.32 % of dose. In data set [3] (setting [8]), the “cumulative excretion in urine, Naringenin” value is on record as 28.3 ± 43.2 % of dose.
